Data from PubChem BioAssay AID860 (Vanderbilt High Throughput Screening Facility, 2007).

What follows are compounds tested against Muscarinic acetylcholine receptor M4 (Rattus norvegicus) (UniProt P08485) (assay: rat M4 receptor inhibition concentration-response – cell-based, antagonist mode, counter-screen for M1 allosteric modulator project, dose response (AID 860)). Conditions: rat M4-expressing cells, calcium fluorescence, antagonist mode at EC80 agonist.
Chain of Muscarinic acetylcholine receptor M4 (Rattus norvegicus) (P08485 whole entry, looked up): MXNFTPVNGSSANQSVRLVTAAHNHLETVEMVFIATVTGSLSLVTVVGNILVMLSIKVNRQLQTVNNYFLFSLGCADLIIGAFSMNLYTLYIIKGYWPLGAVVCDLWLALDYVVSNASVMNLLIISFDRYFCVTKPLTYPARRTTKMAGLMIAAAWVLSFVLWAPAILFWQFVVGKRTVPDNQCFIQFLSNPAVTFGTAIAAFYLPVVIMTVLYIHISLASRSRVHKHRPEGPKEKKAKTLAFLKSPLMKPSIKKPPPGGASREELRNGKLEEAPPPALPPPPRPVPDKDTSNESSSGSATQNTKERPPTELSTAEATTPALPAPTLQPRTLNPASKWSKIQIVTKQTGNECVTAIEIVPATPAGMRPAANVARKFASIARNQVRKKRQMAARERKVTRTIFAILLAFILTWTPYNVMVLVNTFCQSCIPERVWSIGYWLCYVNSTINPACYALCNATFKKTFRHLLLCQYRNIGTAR

IC50 [nM]	SMILES
33.1	CC1CCN(Cc2ccc(NC(=O)CC3Oc4ccccc4NC3=O)cc2)CC1 (centres undefined)
979	O=C(CN1CCCC(O)C1)N1c2ccccc2Sc2ccc(C(F)(F)F)cc21 (centres undefined)
11.7	CN(C)CCOC(=O)C(c1ccccc1)C1(O)CCCC1 (centres undefined)
411	O=C(NC1CCN(Cc2ccccc2)CC1)C1COc2ccccc2O1 (centres undefined)
577	CCC(C)N(CCNC(=O)CC1Oc2ccc(C)cc2NC1=O)C1CCCCC1 (centres undefined)
742	CCN(CCCCOC(=O)c1ccc(OC)c(OC)c1)C(C)Cc1ccc(OC)cc1 (centres undefined)
759	CCN1C(=O)/C(=C\N2CCCCCC2)SC1=S
38.3	Cc1nc2c(o1)CCc1ccccc1C2N1CCN(C)CC1 (centres undefined)
847	CCC(C)N(CCNC(=O)CC1Oc2ccccc2NC1=O)C1CCCCC1 (centres undefined)
215	CN(C)CCCOC(=O)C1c2ccccc2Oc2ccccc21
925	CNCCCC1c2ccccc2C=Cc2ccccc21
34.3	OC(CCN1CCCC1)(c1ccccc1)C1CCCCC1 (centres undefined)
747	CCN(CC)CCOC(=O)C(c1ccccc1)c1ccccc1
1300	COC(=O)c1ccc(CSc2nc(C)nc3c2c(=O)n(C)c(=O)n3C)o1
111	OC(CCN1CCCCC1)(c1ccccc1)c1ccccc1
1150	CN(C)CCC=C1c2ccccc2CCc2ccccc21
29.4	CCCC(CCC)C(=O)OC1C[C@H]2CC[C@@H](C1)[N+]2(C)C (some centres undefined)
325	O=C(OCCN1CCCC1)C1(c2ccccc2)CCCC1
72.7	Cc1ccc(C(=O)C2CCN(CC(=O)NC3CCCCC3)CC2)cc1
451	COc1ccc(N2C(=O)CSC23C(=O)N2CCCc4cccc3c42)cc1 (centres undefined)
136	CN1CCC(=C2c3ccccc3C=Cc3ccccc32)CC1
752	O=C(CC(c1ccccc1O)N1CCCCC1)N1CCCCC1 (centres undefined)
822	CCN(CC)c1ccc(C2C(C(=O)OCCOC(C)C)=C(C)NC3=C2C(=O)CCC3)cc1 (centres undefined)
71.6	Cc1ccc2c(c1)NC(=O)C(CC(=O)Nc1ccc(CN3CCC(C)CC3)cc1)O2 (centres undefined)
